The text below walks through data of PMC7531004, “Discovery of gramicidin A analogues with altered activities by multidimensional screening of a one-bead-one-compound library” (Nature Communications, 2020).

Where a SMILES comes first, the peptide text is derived from it. [ ]: non-standard residue; d: D form. The star is where a group is joined. NHCH2CH2OH = OCCN*; For = O=C*

The nature of data set [1]: H+/Na+ transport assay of bead-derived peptides (one-point).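 Also: relative to parent gramicidin A activity set to 1.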 The class given is biochemical. Set-up: key: relative activity; mean of two control wells = 1.00. The settings on record: bead-derived peptide solution, EYPC/EYPG LUVs. An outline of the steps:
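Values are normalized fluorescence, with Triton X-100 defining 100% and untreated LUVs 0%, and the two control wells averaging 1.00. Vesicles carried 1.0 mM pyranine and included egg yolk phosphatidylglycerol. Peptides were incubated with them 30 min at room temperature.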

Data set [2] has as its system P388 mouse leukemia cells. The settings on record: 92 h. An outline of the steps:
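P388 cells at 1 × 10^4 cells/mL (final) were exposed to library peptides (stocks diluted 250-fold in RPMI1640/10% FBS) for 92 h at 37 °C, 5% CO2. Viable cells were counted by WST-1/1-methoxy PMS (4 h), absorbance 415 nm, and expressed as cell viability (%).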

Data set [3] has as its system Streptococcus pyogenes SSI-9. Briefly: Antibacterial activity assay of bead-derived peptides (three concentrations). Further details: key: +++: inhibition by the 640-fold diluted peptide solution; ++: inhibition by the 160-fold diluted solution; +: inhibition by the 40-fold diluted solution; -: no inhibition. Format: cell-based. The settings on record: S. pyogenes, bead-derived peptide solution, three concentrations. An outline of the steps: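 Library peptide stock applied undiluted, 4-fold and 16-fold diluted in DMSO to S. pyogenes SSI-9 (2 × 10^5 CFU) in cation-adjusted Mueller Hinton broth with 5% laked horse blood. After 18 h at 37 °C, growth judged by visible cell precipitation.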

For `CNC(=O)C[C@@H](NC(=O)[C@@H](NC(=O)[C@H](NC(=O)[C@H](C)NC(=O)[C@H](NC(=O)[C@H](C)NC(=O)CNC(=O)[C@@H](NC=O)C(C)C)C(C)C)C(C)C)C(C)C)C(=O)N[C@@H](Cc1c[nH]c2ccccc12)C(=O)N[C@H](CC(C)C)C(=O)N[C@@H](Cc1c[nH]c2ccccc12)C(=O)N[C@H](CC(C)C)C(=O)N[C@@H](Cc1c[nH]c2ccccc12)C(=O)N[C@@H](C(=O)N[C@@H](Cc1c[nH]c2ccccc12)C(=O)NCCO)C(C)C` [compound 5771] (For-VGA[dV]A[dV]V[dD](NHMe)W[dL]W[dL]W[dV]W-NHCH2CH2OH), in data set [1], the “H+/Na+ transport activity normalized against the value of 1 (1.00)” value (“H+/Na+ transport activity normalized” for short) worked out at 1.46. Besides, the cell viability/% in data set [2] is given as 79.3%. For the same compound, the antibacterial activity result in data set [3] is reported as “-”.
The like results for `CNC(=O)C[C@@H](NC(=O)[C@@H](NC(=O)[C@H](NC(=O)[C@H](C)NC(=O)[C@@H](CC(C)C)NC(=O)[C@H](C)NC(=O)CNC(=O)[C@@H](NC=O)C(C)C)C(C)C)C(C)C)C(=O)N[C@@H](Cc1c[nH]c2ccccc12)C(=O)N[C@@H](C(=O)N[C@@H](Cc1c[nH]c2ccccc12)C(=O)N[C@H](CC(C)C)C(=O)N[C@@H](Cc1c[nH]c2ccccc12)C(=O)N[C@@H](C(=O)N[C@@H](Cc1c[nH]c2ccccc12)C(=O)NCCO)C(C)C)C(C)C` [compound 5778] (For-VGA[dL]A[dV]V[dD](NHMe)W[dV]W[dL]W[dV]W-NHCH2CH2OH) were, in that order, 1.19, 77.8% and “-”.
As to `CC(C)C[C@@H](NC(=O)[C@H](C)NC(=O)[C@H](NC(=O)[C@H](C)NC(=O)CNC(=O)[C@@H](NC=O)C(C)C)C(C)C)C(=O)N[C@H](C(=O)N[C@@H](C(=O)N[C@@H](Cc1c[nH]c2ccccc12)C(=O)N[C@H](CC(C)C)C(=O)N[C@@H](Cc1c[nH]c2ccccc12)C(=O)N[C@H](CC(C)C)C(=O)N[C@@H](Cc1c[nH]c2ccccc12)C(=O)N[C@@H](C(=O)N[C@@H](Cc1c[nH]c2ccccc12)C(=O)NCCO)C(C)C)C(C)C)C(C)C` [compound 5872] (For-VGA[dV]A[dL]V[dV]W[dL]W[dL]W[dV]W-NHCH2CH2OH), in data set [1], the “H+/Na+ transport activity normalized” value was determined as 1.02. The compound also showed a cell viability/% in data set [2] of 9.9%. The antibacterial activity entry in data set [3] is “+”.
For `CC(C)C[C@@H](NC(=O)[C@H](Cc1c[nH]c2ccccc12)NC(=O)[C@H](NC(=O)[C@H](Cc1c[nH]c2ccccc12)NC(=O)[C@H](NC(=O)[C@@H](NC(=O)[C@H](NC(=O)[C@H](C)NC(=O)[C@H](NC(=O)[C@H](C)NC(=O)CNC(=O)[C@@H](NC=O)C(C)C)[C@H](C)O)C(C)C)C(C)C)C(C)C)C(C)C)C(=O)N[C@@H](Cc1c[nH]c2ccccc12)C(=O)N[C@@H](C(=O)N[C@@H](Cc1c[nH]c2ccccc12)C(=O)NCCO)C(C)C` [compound 5933] (For-VGA[dT]A[dV]V[dV]W[dV]W[dL]W[dV]W-NHCH2CH2OH), the “H+/Na+ transport activity normalized” value in data set [1] is 1.05. This compound gave a cell viability/% in data set [2] of 73.0%. Moreover, the antibacterial activity entry in data set [3] was “-”.
In the case of `CC(C)C[C@@H](NC(=O)[C@H](C)NC(=O)CNC(=O)[C@@H](NC=O)C(C)C)C(=O)N[C@@H](C)C(=O)N[C@H](CC(C)C)C(=O)N[C@H](C(=O)N[C@H](CC(C)C)C(=O)N[C@@H](Cc1c[nH]c2ccccc12)C(=O)N[C@@H](C(=O)N[C@@H](Cc1c[nH]c2ccccc12)C(=O)N[C@@H](C(=O)N[C@@H](Cc1c[nH]c2ccccc12)C(=O)N[C@@H](C(=O)N[C@@H](Cc1c[nH]c2ccccc12)C(=O)NCCO)C(C)C)C(C)C)[C@H](C)O)C(C)C` [compound 5996] (For-VGA[dL]A[dL]V[dL]W[dT]W[dV]W[dV]W-NHCH2CH2OH), the “H+/Na+ transport activity normalized” value in data set [1] was found to be 1.08. In data set [2], this compound had a cell viability/% of 78.7%. Moreover, in data set [3], the antibacterial activity result was “-”.
For `CC(C)C[C@@H](NC(=O)[C@H](C)NC(=O)CNC(=O)[C@@H](NC=O)C(C)C)C(=O)N[C@@H](C)C(=O)N[C@H](CC(C)C)C(=O)N[C@H](C(=O)N[C@H](CC(C)C)C(=O)N[C@@H](Cc1c[nH]c2ccccc12)C(=O)N[C@@H](C(=O)N[C@@H](Cc1c[nH]c2ccccc12)C(=O)N[C@H](CC(C)C)C(=O)N[C@@H](Cc1c[nH]c2ccccc12)C(=O)N[C@@H](C(=O)N[C@@H](Cc1c[nH]c2ccccc12)C(=O)NCCO)C(C)C)C(C)C)C(C)C` [compound 6096] (For-VGA[dL]A[dL]V[dL]W[dV]W[dL]W[dV]W-NHCH2CH2OH), the “H+/Na+ transport activity normalized” value in data set [1] is 1.16. The cell viability/% in data set [2] is recorded as 7.3%. For the same compound, the antibacterial activity entry in data set [3] is listed as “+”.
The like results for `CC(C)C[C@@H](NC(=O)[C@H](Cc1c[nH]c2ccccc12)NC(=O)[C@H](NC(=O)[C@H](Cc1c[nH]c2ccccc12)NC(=O)[C@@H](CC(C)C)NC(=O)[C@@H](NC(=O)[C@H](NC(=O)[C@H](C)NC(=O)[C@H](NC(=O)[C@H](C)NC(=O)CNC(=O)[C@@H](NC=O)C(C)C)[C@H](C)O)C(C)C)C(C)C)C(C)C)C(=O)N[C@@H](Cc1c[nH]c2ccccc12)C(=O)N[C@@H](C(=O)N[C@@H](Cc1c[nH]c2ccccc12)C(=O)NCCO)C(C)C` [compound 6116] (For-VGA[dT]A[dV]V[dL]W[dV]W[dL]W[dV]W-NHCH2CH2OH) were, in that order, 1.13, 93.5% and “-”.
On the same counts, the results for `CC(C)C[C@@H](NC(=O)[C@H](Cc1c[nH]c2ccccc12)NC(=O)[C@H](NC(=O)[C@H](Cc1c[nH]c2ccccc12)NC(=O)[C@H](NC(=O)[C@@H](NC(=O)[C@H](NC(=O)[C@H](C)NC(=O)[C@H](NC(=O)[C@H](C)NC(=O)CNC(=O)[C@@H](NC=O)C(C)C)C(C)C)C(C)C)C(C)C)C(C)C)C(C)C)C(=O)N[C@@H](Cc1c[nH]c2ccccc12)C(=O)N[C@@H](C(=O)N[C@@H](Cc1c[nH]c2ccccc12)C(=O)NCCO)C(C)C` [compound 6165] (For-VGA[dV]A[dV]V[dV]W[dV]W[dL]W[dV]W-NHCH2CH2OH) are 1.07, 67.9% and “-”.
On the same counts, the results for `CC(C)C[C@@H](NC(=O)[C@H](C)NC(=O)CNC(=O)[C@@H](NC=O)C(C)C)C(=O)N[C@@H](C)C(=O)N[C@@H](C(=O)N[C@H](C(=O)N[C@@H](C(=O)N[C@@H](Cc1c[nH]c2ccccc12)C(=O)N[C@@H](C(=O)N[C@@H](Cc1c[nH]c2ccccc12)C(=O)N[C@H](CC(C)C)C(=O)N[C@@H](Cc1c[nH]c2ccccc12)C(=O)N[C@H](CC(C)C)C(=O)N[C@@H](Cc1c[nH]c2ccccc12)C(=O)NCCO)C(C)C)[C@H](C)O)C(C)C)C(C)C` [compound 6225] (For-VGA[dL]A[dV]V[dT]W[dV]W[dL]W[dL]W-NHCH2CH2OH) are 1.10, 80.8% and “-”.
Regarding `CC(C)C[C@@H](NC(=O)[C@H](C)NC(=O)[C@H](NC(=O)[C@H](C)NC(=O)CNC(=O)[C@@H](NC=O)C(C)C)[C@H](C)O)C(=O)N[C@H](C(=O)N[C@H](CC(C)C)C(=O)N[C@@H](Cc1c[nH]c2ccccc12)C(=O)N[C@@H](C(=O)N[C@@H](Cc1c[nH]c2ccccc12)C(=O)N[C@H](CC(C)C)C(=O)N[C@@H](Cc1c[nH]c2ccccc12)C(=O)N[C@@H](C(=O)N[C@@H](Cc1c[nH]c2ccccc12)C(=O)NCCO)C(C)C)[C@H](C)O)C(C)C` [compound 6248] (For-VGA[dT]A[dL]V[dL]W[dT]W[dL]W[dV]W-NHCH2CH2OH), the “H+/Na+ transport activity normalized” value in data set [1] was determined as 1.10. Further, the cell viability/% in data set [2] is reported as 87.7%. Further, in data set [3], the antibacterial activity result is recorded as “-”.
